Experiments:
JAK2 = molecular target: T1, JAK2 (Homo sapiens, UniProt O60674); test: Biochemical JAK2 kinase assay (LanthaScreen); conditions: read-out: JAK 2 (pKi) (converted)
T1 construct: GST; purchased Life Technologies
Procedure, shortened: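 pKi values derive from pIC50 via Cheng-Prusoff, with IC50 from a 4-parameter fit of percent-inhibition TR-FRET data using Tb-anti-pSTAT1 (pTyr701) detection. Compound, GST-JAK2 and GFP-STAT1 substrate were pre-incubated 1 h, then ATP started a 1 h ambient reaction (HEPES pH 7.5, 10 mM MgCl2, 1% DMSO).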

Tyk2 = molecular target: T2, Tyk2 (Homo sapiens, UniProt P29597); test: Biochemical Tyk2 kinase assay (LanthaScreen); conditions: read-out: Tyk 2 (pKi) (converted)
T2 construct: GST; purchased Life Technologies
T2 sequence (P29597 whole entry): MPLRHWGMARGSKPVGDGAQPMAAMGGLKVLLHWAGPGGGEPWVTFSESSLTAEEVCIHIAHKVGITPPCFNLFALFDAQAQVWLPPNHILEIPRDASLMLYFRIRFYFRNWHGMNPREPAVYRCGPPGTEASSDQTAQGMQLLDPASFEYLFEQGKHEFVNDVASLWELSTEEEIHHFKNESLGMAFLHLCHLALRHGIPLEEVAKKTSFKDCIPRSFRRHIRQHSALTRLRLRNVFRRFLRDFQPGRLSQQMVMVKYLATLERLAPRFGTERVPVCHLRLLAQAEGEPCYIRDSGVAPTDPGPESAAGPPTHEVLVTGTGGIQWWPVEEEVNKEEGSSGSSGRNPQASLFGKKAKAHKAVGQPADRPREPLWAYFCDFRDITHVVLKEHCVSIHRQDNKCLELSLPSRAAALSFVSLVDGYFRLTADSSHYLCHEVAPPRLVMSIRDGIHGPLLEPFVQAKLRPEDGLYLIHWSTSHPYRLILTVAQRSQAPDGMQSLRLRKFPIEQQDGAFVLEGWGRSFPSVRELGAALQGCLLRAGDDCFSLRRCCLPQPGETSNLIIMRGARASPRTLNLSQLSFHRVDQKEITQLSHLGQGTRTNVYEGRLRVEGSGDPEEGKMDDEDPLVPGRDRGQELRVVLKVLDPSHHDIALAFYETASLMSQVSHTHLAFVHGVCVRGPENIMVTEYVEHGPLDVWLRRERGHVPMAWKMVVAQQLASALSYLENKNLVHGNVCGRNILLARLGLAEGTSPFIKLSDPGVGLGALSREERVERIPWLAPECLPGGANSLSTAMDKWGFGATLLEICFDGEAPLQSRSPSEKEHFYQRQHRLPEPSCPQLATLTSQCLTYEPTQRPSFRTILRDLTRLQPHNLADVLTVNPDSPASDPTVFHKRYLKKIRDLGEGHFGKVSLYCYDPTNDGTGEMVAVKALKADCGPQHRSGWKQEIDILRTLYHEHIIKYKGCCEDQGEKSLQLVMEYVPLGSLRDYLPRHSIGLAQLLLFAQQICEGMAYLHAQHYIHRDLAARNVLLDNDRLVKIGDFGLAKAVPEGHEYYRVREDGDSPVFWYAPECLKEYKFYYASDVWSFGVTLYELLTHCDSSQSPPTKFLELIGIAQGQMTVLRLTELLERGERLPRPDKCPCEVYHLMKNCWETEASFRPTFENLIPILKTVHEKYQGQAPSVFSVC
Procedure, shortened: (§1)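 Recombinant GST-tagged JAK enzymes with GFP-STAT1 peptide substrate in 50 mM HEPES pH 7.5, 10 mM MgCl2, 1 mM EGTA, 0.01% Brij-35; compounds pre-incubated 1 h, then ATP added, 1 h reaction at ambient temperature. TR-FRET (Tb-anti-pSTAT1 pTyr701, 520/495 nm) after EDTA stop; IC50 by 4-parameter fit, converted to pKi via Cheng-Prusoff.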

[1] = tested on: IL-2 induced pSTAT5 in thymus; test: Systemic target engagement: murine model of IL-2 induced pSTAT5 induction in thymus; assay type: in vivo, mouse
Source text: IL-2 is an important cytokine underlying the pathophysiology of gastro-intestinal diseases such as […] bowel disease (IBD; Guan and Zhang. Mediators Inflamm, 2017; 4810258). IL-2 binds to cell surface receptors activating members of the Janus family of kinases (JAK), specifically JAK3, which then phosphorylates STAT5 and subsequently activates further transcription pathways. In this model, a dose of IL-2 was delivered systemically to mice to induce the phosphorylation of STAT5 (pSTAT5) which was then measured as the endpoint.
Adult male Balb/c mice from Harlan were used in the assay. Animals were administered test compound via oral gavage (PO, 10 or 30 mg/kg for single dose studies; 10-60 mg/kg for dose response studies) on the afternoon of the day prior to study and then in the morning on the day of study. Two hours after the second PO dose administration, mice were injected intraperitoneally (i.p.) with 100 μl of an appropriate IL-2 dose (for a total of 1-5 μg/mouse depending upon IL-2 batch; R&D Systems). 90-120 minutes after IL-2 insult, thymus samples were harvested.

JAK3 = molecular target: T3, JAK3 (Homo sapiens, UniProt P52333); test: Biochemical JAK3 kinase assay (LanthaScreen); set-up: GST; purchased Life Technologies; conditions: for Ki: read-out: JAK 3 (pKi) (converted); for JAK3 (pKi)-JAK1 (pKi): selectivity: difference of pKi JAK3 and pKi JAK1
T3 sequence (P52333 1-1124): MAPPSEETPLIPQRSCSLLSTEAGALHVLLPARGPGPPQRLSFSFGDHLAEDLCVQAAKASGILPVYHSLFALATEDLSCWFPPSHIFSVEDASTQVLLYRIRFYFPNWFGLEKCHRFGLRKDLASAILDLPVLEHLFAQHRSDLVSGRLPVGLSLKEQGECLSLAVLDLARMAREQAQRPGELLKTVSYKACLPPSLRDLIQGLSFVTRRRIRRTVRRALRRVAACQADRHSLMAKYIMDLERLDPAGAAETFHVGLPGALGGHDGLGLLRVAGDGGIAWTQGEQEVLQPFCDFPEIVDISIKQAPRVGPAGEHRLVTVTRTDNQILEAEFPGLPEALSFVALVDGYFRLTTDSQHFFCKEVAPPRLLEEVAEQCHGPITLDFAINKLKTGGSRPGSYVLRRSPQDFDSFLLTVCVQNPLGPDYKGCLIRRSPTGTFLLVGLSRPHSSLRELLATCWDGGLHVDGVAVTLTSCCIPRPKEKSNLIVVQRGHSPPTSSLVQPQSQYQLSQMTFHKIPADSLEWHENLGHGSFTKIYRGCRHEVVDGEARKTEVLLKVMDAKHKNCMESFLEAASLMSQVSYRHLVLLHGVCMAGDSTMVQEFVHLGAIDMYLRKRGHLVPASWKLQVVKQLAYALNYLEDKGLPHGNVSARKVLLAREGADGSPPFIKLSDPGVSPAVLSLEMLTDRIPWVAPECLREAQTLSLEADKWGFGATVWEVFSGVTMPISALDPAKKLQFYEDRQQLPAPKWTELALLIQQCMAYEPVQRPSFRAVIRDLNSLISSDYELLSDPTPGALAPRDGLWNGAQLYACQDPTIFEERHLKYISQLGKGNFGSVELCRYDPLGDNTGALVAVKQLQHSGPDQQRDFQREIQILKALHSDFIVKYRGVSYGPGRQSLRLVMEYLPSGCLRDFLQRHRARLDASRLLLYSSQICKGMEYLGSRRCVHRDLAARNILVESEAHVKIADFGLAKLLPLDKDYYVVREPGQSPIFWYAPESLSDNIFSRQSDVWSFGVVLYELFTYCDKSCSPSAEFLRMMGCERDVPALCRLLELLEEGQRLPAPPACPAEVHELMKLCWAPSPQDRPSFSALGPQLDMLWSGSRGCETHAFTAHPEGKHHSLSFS
Procedure, shortened: as §1

T1 sequence (O60674 whole entry): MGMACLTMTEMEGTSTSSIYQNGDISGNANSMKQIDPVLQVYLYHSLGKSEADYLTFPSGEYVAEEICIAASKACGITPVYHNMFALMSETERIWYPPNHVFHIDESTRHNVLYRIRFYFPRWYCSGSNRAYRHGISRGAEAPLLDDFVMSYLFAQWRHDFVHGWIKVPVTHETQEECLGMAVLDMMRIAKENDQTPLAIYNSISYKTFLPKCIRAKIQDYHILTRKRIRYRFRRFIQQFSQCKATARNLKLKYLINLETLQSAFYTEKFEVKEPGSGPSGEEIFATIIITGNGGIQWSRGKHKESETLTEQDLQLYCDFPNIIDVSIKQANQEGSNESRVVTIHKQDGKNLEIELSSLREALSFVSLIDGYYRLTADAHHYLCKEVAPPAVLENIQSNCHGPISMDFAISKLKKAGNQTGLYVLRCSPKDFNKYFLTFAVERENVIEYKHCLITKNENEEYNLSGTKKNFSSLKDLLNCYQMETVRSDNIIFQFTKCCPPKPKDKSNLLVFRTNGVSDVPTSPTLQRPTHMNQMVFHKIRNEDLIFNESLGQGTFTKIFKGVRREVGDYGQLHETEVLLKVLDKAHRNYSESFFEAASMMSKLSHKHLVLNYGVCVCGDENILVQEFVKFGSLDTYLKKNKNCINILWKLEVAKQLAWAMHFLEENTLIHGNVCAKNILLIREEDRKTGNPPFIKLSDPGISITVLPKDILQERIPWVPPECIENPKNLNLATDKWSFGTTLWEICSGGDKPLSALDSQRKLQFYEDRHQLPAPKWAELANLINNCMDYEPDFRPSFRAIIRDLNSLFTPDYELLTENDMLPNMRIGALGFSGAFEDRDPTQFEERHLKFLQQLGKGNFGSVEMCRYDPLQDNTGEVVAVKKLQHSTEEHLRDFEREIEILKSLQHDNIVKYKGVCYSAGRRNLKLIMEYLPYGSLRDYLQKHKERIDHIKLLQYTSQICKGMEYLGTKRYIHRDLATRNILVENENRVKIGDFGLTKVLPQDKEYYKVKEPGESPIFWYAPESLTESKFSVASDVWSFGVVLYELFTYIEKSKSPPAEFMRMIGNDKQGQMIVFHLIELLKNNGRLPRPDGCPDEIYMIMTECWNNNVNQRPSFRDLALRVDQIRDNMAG

Compound | Ki (JAK2) | Ki (Tyk2) | inhibition of IL-2 induced pSTAT5 in thymus compared to vehicle ([1]; PO, 10, 30, 60 and 100 mg/kg) | Ki (JAK3) | JAK3 (pKi)-JAK1 (pKi) (JAK3) | inhibition of IL-2 induced pSTAT5 in thymus compared to vehicle ([1]; PO, 30 mg/kg) | inhibition of IL-2 induced pSTAT5 in thymus compared to vehicle ([1]; PO, 10 mg/kg) | inhibition of IL-2 induced pSTAT5 in thymus compared to vehicle ([1]; PO, 10, 30 and 60 mg/kg) | inhibition of IL-2 induced pSTAT5 in thymus compared to vehicle ([1]; PO, 30 and 100 mg/kg)
CN(C)C/C=C/C(=O)N1CC(COc2cc(-c3ccc(O)cc3)cc3[nH]ncc23)C1 [Compound 1, (E)-4-(dimethylamino)-1-(3-(((6-(4-hydroxyphenyl)-1H-indazol-4-yl)oxy)methyl)azetidin-1-yl)but-2-en-1-one] | 10 to 100 nM | > 100 nM | no significant inhibition | < 0.1 nM | A (a value of 3 or above) |  |  |  | 
CN(C)C/C=C/C(=O)N1CCC(C)(Oc2cc(-c3ccc(O)cc3)cc3[nH]ncc23)CC1 [Compound 9, (E)-4-(dimethylamino)-1-(4-((6-(4-hydroxyphenyl)-1H-indazol-4-yl)oxy)-4-methylpiperidin-1-yl)but-2-en-1-one] |  |  |  | 0.1 to 1 nM | A (a value of 3 or above) |  |  |  | 
CN(C)C/C=C/C(=O)N1CC(COc2cc(-c3ccc(O)c(F)c3)cc3[nH]ncc23)C1 [Compound 5, (E)-4-(dimethylamino)-1-(3-(((6-(3-fluoro-4-hydroxyphenyl)-1H-indazol-4-yl)oxy)methyl)azetidin-1-yl)but-2-en-1-one] | 10 to 100 nM | > 100 nM |  | < 0.1 nM | A (a value of 3 or above) | no significant inhibition |  |  | 
C=CC(=O)N1CC[C@H](COc2cc(-c3ccc(O)cc3)cc3[nH]ncc23)C1 [Compound 7, (S)-1-(3-(((6-(4-hydroxyphenyl)-1H-indazol-4-yl)oxy)methyl)pyrrolidin-1-yl)prop-2-en-1-one] | 10 to 100 nM | > 100 nM |  | 0.1 to 1 nM | A (a value of 3 or above) |  | no significant inhibition |  | 
C=CC(=O)N1CC(CC)(COc2cc(-c3ccc(O)cc3)nc3[nH]ncc23)C1 [Compound 22, 1-(3-ethyl-3-(((6-(4-hydroxyphenyl)-1H-pyrazolo[3,4-b]pyridin-4-yl)oxy)methyl)azetidin-1-yl)prop-2-en-1-one] | > 100 nM | > 100 nM |  | < 0.1 nM | A (a value of 3 or above) |  |  |  | 
C=CC(=O)N1CC(C)(COc2nc(-c3ccc(O)c(F)c3)nc3[nH]ncc23)C1 [Compound 21, 1-(3-(((6-(3-fluoro-4-hydroxyphenyl)-1H-pyrazolo[3,4-d]pyrimidin-4-yl)oxy)methyl)-3-methylazetidin-1-yl)prop-2-en-1-one] | > 100 nM | > 100 nM |  | < 0.1 nM | A (a value of 3 or above) |  |  |  | 
C=CC(=O)N1CCO[C@@H](C(=O)Nc2cc(-c3ccc(O)cc3)cc3[nH]ncc23)C1 [Compound 6, (R)-4-acryloyl-N-(6-(4-hydroxyphenyl)-1H-indazol-4-yl)morpholine-2-carboxamide] | 10 to 100 nM | > 100 nM |  | < 0.1 nM | A (a value of 3 or above) |  | no significant inhibition |  | 
C=CC(=O)N1CC(C(C)(C)Oc2cc(-c3ccc(O)cc3)nc3[nH]ncc23)C1 [Compound 20, 1-(3-(2-((6-(4-hydroxyphenyl)-1H-pyrazolo[3,4-b]pyridin-4-yl)oxy)propan-2-yl)azetidin-1-yl)prop-2-en-1-one] | > 100 nM | > 100 nM |  | < 0.1 nM | A (a value of 3 or above) |  |  |  | 
CN(C)C/C=C/C(=O)N1CC(C#N)(COc2cc(-c3ccc(O)c(F)c3)cc3[nH]ncc23)C1 [Compound 8, (E)-1-(4-(dimethylamino)but-2-enoyl)-3-(((6-(3-fluoro-4-hydroxyphenyl)-1Hindazol-4-yl)oxy)methyl)azetidine-3-carbonitrile] | 10 to 100 nM | > 100 nM |  | < 0.1 nM | A (a value of 3 or above) | no significant inhibition |  |  | 
C=CC(=O)N1CC[C@H](Oc2cc(-c3ccc(O)c(Cl)c3)cc3[nH]ncc23)C1 [Compound 2, (S)-1-(3-((6-(3-chloro-4-hydroxyphenyl)-1H-indazol-4-yl)oxy)pyrrolidin-1-yl)prop-2-en-1-one] | > 100 nM | > 100 nM |  | < 0.1 nM | A (a value of 3 or above) |  |  | no significant inhibition | 
CN(C)C/C=C/C(=O)N1CC(C(C)(C)Oc2cc(-c3ccc(O)c(Cl)c3)cc3[nH]ncc23)C1 [Compound 3, (E)-1-(3-(2-((6-(3-chloro-4-hydroxyphenyl)-1H-indazol-4-yl)oxy)propan-2-yl)azetidin-1-yl)-4-(dimethylamino)but-2-en-1-one] | > 100 nM | > 100 nM |  | 0.1 to 1 nM | A (a value of 3 or above) |  |  |  | no significant inhibition
C=CC(=O)N1CC(COc2nc(-c3ccc(O)cc3)nc3[nH]ncc23)C1 [Compound 4, 1-(3-(((6-(4-hydroxyphenyl)-1H-pyrazolo[3,4-d]pyrimidin-4-yl)oxy)methyl)azetidin-1-yl)prop-2-en-1-one] | > 100 nM | > 100 nM |  | < 0.1 nM | A (a value of 3 or above) | no significant inhibition |  |  | 

Source: patent US10392368B2, “Pyrazolo and triazolo bicyclic compounds as JAK kinase inhibitors” (THERAVANCE BIOPHARMA R&D IP, LLC, priority 2017, dated 2019)
